How the values were obtained:
N700 alaRS = molecular target: T1, N700 alaRS (Escherichia coli, UniProt P00957); assay: ANS fluorescence titration; assay type: binding; details: read-out: dissociation constant
T1 construct: gene alaS; N-terminal residues 1-700, N-terminal His tag (pET20a), expressed in E. coli BL21(DE3), monomer, 77000 Da
T1 sequence (P00957 2-701): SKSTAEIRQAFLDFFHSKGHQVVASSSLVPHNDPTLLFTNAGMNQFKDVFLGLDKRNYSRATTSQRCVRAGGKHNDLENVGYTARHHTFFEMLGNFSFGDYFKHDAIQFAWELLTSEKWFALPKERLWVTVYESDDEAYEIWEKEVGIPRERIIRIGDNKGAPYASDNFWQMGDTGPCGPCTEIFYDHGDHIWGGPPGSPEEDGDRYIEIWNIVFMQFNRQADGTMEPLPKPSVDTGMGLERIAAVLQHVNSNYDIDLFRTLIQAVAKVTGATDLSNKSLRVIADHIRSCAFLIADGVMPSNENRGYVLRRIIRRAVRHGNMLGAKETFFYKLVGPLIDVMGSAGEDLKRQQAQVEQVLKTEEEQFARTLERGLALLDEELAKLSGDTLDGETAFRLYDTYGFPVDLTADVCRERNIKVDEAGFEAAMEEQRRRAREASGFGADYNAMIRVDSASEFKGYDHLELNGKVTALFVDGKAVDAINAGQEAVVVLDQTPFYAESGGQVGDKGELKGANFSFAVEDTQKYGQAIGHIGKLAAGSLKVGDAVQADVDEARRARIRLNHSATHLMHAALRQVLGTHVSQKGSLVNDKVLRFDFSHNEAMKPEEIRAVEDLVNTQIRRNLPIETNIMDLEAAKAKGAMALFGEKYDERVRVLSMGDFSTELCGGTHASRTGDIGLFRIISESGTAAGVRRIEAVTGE

N461 alaRS = molecular target: T2, N461 alaRS (Escherichia coli, UniProt P00957); assay: ANS fluorescence titration; assay type: binding; details: read-out: dissociation constant
T2 construct: gene alaS; N-terminal residues 1-461 (aminoacylation and tRNA recognition domain), N-terminal His tag (pET28a), expressed in E. coli BL21(DE3), monomer, 50710 Da
T2 sequence (P00957 2-462): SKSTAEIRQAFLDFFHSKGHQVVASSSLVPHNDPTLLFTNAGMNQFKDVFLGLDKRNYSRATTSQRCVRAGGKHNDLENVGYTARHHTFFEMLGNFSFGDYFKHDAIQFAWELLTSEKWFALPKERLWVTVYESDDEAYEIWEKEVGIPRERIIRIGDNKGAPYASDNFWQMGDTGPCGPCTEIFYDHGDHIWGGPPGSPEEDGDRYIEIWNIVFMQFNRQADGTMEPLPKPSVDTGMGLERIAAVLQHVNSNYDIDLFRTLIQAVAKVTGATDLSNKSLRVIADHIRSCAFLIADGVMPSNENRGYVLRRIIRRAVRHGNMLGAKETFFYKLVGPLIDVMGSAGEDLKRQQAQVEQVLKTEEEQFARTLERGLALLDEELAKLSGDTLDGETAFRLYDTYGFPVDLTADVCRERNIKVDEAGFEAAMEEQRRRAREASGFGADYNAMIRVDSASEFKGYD

alaRS = molecular target: T3, alaRS (Escherichia coli, UniProt P00957, G675D); assay: ANS fluorescence titration; assay type: binding; details: read-out: dissociation constant
T3 construct: gene alaS; full length, 875 residues, N-terminal His tag (pET28a), expressed in E. coli BL21(DE3), homodimer, 192500 Da
T3 sequence (P00957 2-876 G675D): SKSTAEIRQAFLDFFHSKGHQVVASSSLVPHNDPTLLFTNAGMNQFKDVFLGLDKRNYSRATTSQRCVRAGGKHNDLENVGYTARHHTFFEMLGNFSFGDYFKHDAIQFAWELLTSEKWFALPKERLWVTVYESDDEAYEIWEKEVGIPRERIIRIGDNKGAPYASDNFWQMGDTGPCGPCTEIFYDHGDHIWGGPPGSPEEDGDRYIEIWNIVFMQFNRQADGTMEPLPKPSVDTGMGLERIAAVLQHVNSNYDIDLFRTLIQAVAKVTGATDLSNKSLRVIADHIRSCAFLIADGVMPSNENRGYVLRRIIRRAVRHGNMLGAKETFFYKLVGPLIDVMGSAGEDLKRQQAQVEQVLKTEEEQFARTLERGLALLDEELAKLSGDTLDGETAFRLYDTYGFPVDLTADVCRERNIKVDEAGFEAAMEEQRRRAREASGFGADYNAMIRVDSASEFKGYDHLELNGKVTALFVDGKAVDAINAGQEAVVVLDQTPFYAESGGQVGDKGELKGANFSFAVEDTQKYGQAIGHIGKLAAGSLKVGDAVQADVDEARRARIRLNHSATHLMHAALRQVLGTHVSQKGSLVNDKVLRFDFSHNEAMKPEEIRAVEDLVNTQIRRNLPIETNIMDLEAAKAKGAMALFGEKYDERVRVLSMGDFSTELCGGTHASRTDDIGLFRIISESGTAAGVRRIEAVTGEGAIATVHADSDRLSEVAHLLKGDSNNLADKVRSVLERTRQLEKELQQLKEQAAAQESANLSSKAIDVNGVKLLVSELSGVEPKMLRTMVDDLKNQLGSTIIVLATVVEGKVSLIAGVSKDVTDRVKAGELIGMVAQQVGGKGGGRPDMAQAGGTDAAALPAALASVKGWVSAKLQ

WT-alaRS = molecular target: T4, WT-alaRS (Escherichia coli, UniProt P00957); assay: ANS fluorescence titration; assay type: binding; details: read-out: dissociation constant
T4 construct: gene alaS; full length, 875 residues, N-terminal His tag (pET28a), expressed in E. coli BL21(DE3), homodimer, 192500 Da
T4 sequence (P00957 2-876): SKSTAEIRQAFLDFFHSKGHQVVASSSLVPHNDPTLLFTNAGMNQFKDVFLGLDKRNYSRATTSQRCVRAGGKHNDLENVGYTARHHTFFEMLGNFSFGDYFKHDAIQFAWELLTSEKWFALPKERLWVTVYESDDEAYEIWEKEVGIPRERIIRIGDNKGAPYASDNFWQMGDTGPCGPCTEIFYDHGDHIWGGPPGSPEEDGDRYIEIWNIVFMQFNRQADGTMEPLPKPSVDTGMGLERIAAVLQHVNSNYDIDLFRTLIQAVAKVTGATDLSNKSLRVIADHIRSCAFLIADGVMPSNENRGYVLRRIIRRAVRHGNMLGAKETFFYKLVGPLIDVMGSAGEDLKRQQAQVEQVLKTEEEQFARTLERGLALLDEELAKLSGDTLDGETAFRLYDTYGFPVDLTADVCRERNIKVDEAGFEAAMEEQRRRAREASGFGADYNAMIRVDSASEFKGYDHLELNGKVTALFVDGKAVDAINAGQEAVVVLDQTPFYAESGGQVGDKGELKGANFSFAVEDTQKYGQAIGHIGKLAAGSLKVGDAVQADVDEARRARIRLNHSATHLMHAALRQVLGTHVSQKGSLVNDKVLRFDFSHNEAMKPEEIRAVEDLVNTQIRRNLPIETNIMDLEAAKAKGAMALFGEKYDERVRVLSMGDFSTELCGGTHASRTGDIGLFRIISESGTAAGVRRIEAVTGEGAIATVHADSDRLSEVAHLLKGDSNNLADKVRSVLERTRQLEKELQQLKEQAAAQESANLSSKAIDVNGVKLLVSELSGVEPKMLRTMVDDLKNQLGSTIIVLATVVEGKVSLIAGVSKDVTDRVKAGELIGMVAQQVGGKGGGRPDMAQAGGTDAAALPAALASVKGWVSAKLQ

[1] = molecular target: the molecule itself; assay: AUC; sedimentation equilibrium, loading concentrations 5 μM, 10 μM and 20 μM (monomer), 20°C, 100 mM Tris-HCl pH 8.0, global single-species fit in SEDPHAT

| Molecule | Kd (N700 alaRS) [nM] | Kd (N461 alaRS) [nM] | Kd (alaRS) [nM] | Kd (WT-alaRS) [nM] | stoichiometry N [1] |
| --- | --- | --- | --- | --- | --- |
| O=S(=O)(O)c1cccc2cccc(Nc3ccccc3)c12 [ANS] | 1000 to 5000 | 1000 to 5000 | 1000 to 5000 | 1000 to 5000 |  |
| wild type E. coli alanyl-tRNA synthetase (enzyme, UniProt P00957 1-876, looked up, alanyl-tRNA synthetase (alaRS), E. coli, full length, printed as 875 residues per subunit; Clone was a gift from Paul Schimmel; homodimer by sedimentation equilibrium and velocity; also called WT-alaRS; WT; source: E. coli BL21 (DE3), pET28a, purified (Ni-NTA agarose)) MSKSTAEIRQAFLDFFHSKGHQVVASSSLVPHNDPTLLFTNAGMNQFKDVFLGLDKRNYSRATTSQRCVRAGGKHNDLENVGYTARHHTFFEMLGNFSFGDYFKHDAIQFAWELLTSEKWFALPKERLWVTVYESDDEAYEIWEKEVGIPRERIIRIGDNKGAPYASDNFWQMGDTGPCGPCTEIFYDHGDHIWGGPPGSPEEDGDRYIEIWNIVFMQFNRQADGTMEPLPKPSVDTGMGLERIAAVLQHVNSNYDIDLFRTLIQAVAKVTGATDLSNKSLRVIADHIRSCAFLIADGVMPSNENRGYVLRRIIRRAVRHGNMLGAKETFFYKLVGPLIDVMGSAGEDLKRQQAQVEQVLKTEEEQFARTLERGLALLDEELAKLSGDTLDGETAFRLYDTYGFPVDLTADVCRERNIKVDEAGFEAAMEEQRRRAREASGFGADYNAMIRVDSASEFKGYDHLELNGKVTALFVDGKAVDAINAGQEAVVVLDQTPFYAESGGQVGDKGELKGANFSFAVEDTQKYGQAIGHIGKLAAGSLKVGDAVQADVDEARRARIRLNHSATHLMHAALRQVLGTHVSQKGSLVNDKVLRFDFSHNEAMKPEEIRAVEDLVNTQIRRNLPIETNIMDLEAAKAKGAMALFGEKYDERVRVLSMGDFSTELCGGTHASRTGDIGLFRIISESGTAAGVRRIEAVTGEGAIATVHADSDRLSEVAHLLKGDSNNLADKVRSVLERTRQLEKELQQLKEQAAAQESANLSSKAIDVNGVKLLVSELSGVEPKMLRTMVDDLKNQLGSTIIVLATVVEGKVSLIAGVSKDVTDRVKAGELIGMVAQQVGGKGGGRPDMAQAGGTDAAALPAALASVKGWVSAKLQ |  |  |  |  | 2 |
